Results reported in patent US20220143148A1, “COMPOSITIONS AND METHODS FOR MODULATING CGRP SIGNALING TO REGULATE INTESTINAL INNATE LYMPHOID CELLS” (The Broad Institute, Inc., priority 2019, published 2022).

Test system: intestinal KLRG1+ ILC2s
Test: Bulk ATAC-seq of intestinal KLRG1+ ILC2s stimulated in vitro
Format: cell-based, mouse
Settings: α-CGRP stimulation alone
Protocol: ILC2 culture. Sort-purified intestinal KLRG1^+ ILC2s were incubated in RPMI supplemented with 10% FCS, 10 mM Hepes, 1 mM sodium pyruvate, 10% FBS, 80 μm 2-mercaptoethanol, 2 mM glutamine, 100 U/ml penicillin, […] streptomycin, 100 ng/ml IL-2 and 100 ng/ml IL-7 in 96-well round bottom plate at 37° C. and 5% CO2. If indicated, the culture was supplemented with 100 ng/ml IL-25. For the in vitro proliferation assay, cells from different mice were pooled and labeled with CellTrace Violet, and then cultured at 1,000-1,500 cells per well with 10 μg/ml α-CGRP for 60 hours. When indicated, 10 μM forskolin or 1 μM SQ 22, 536 in DMSO was supplied and cells were cultured for 40 hours. […]
Bulk ATAC-seq. […] The library was amplified for 11 cycles, purified with Zymo DNA clean (Zymo Research), and sequenced on an Illumina Next-seq platform using 75 cycle Nextseq 500 high output V2 kit (Read 1: 38 cycles, Index 1: 8 cycles, Index 2: 8 cycles, Read 2: 38 cycles).
The reads were trimmed and aligned to the mouse reference genome (mm9) with Bowtie2 aligner (Langmead and Salzberg, 2012) using the option-X2000. Then, Applicants discarded reads with alignment quality<Q30, improperly paired, mapped to the unmapped contigs, chrY, and mitochondria. […] Peak summits were extended by ±250 bp, and fragment counts in peaks were calculated using chromVAR (Schep et al., 2017) (version: 1.1.1). […]

“α-CGRP: neuropeptide alpha-calcitonin gene-related peptide, encoded by exon 5 of Calca; administered as peptide” was tested, and the “regions of increased chromatin accessibility” value was “enriched for gene loci involved in the adenylate cyclase pathway”.
